# Active and inactive are the calls of the source. No rule for the calls is given here.
# Tested on: ADSC/ECFC co-culture, VEGF-stimulated, CD31 tube area
# Assay: ADSC/ECFC co-culture angiogenesis inhibition – imaging, VEGF stimulation, CD31 staining, tube area, IC50, dose response (AID 1117337)
row,SMILES,IC50
1,Cc1c(O)cc2c(c1C)O[C@](C)(CCC[C@H](C)CCC[C@H](C)CCCC(C)C)CC2,> 10 µM (inactive)
2,CCN[C@@H](C)Cc1cccc(C(F)(F)F)c1,> 10 µM (inactive)
3,CCCCCCCCCCCC[N+](C)(C)CCOc1ccccc1,3.38 µM
4,O=C1NC2CCCCN2C12CCN(CCCN1c3ccccc3CCc3ccc(Cl)cc31)CC2 (stereo not given),> 10 µM (inactive)
5,CN1CCN(CCCN2c3ccccc3Sc3ccc(S(=O)(=O)N(C)C)cc32)CC1,> 10 µM (inactive)
6,CC(=O)Oc1ccc(C2(c3ccc(OC(C)=O)cc3)C(=O)Nc3ccccc32)cc1,> 10 µM (inactive)
7,CC(C)(CO)[C@@H](O)C(=O)NCCC(=O)NCCSSCCNC(=O)CCNC(=O)[C@H](O)C(C)(C)CO,> 10 µM (inactive)
8,CO[C@@H]1[C@@H](OC)[C@H](C)[C@@](O)(CC(=O)O)O[C@H]1[C@H](C)[C@H]1O[C@@]2(CC[C@@](C)([C@H]3CC[C@@](C)([C@@H]4O[C@@H]([C@H]5O[C@](C)(O)[C@H](C)C[C@@H]5C)C[C@@H]4OC4C[C@H](OC)[C@@H](OC)[C@H](C)O4)O3)O2)C[C@H](O)[C@H]1C (stereo not given in full),0.252 µM
9,Cc1cc(OI)c(C(C)C)cc1-c1cc(C(C)C)c(OI)cc1C,> 10 µM (inactive)
10,Nc1nc(=O)n([C@@H]2O[C@H](CO)[C@@H](O)[C@@H]2F)cc1I,3.47 µM
11,CCOC(=O)NC(C)(C)Cc1ccc(Cl)cc1,> 10 µM (inactive)
12,COc1ccc([C@@H]2Sc3ccccc3NC(=O)[C@@H]2O)cc1,> 10 µM (inactive)
13,Cc1cc(C2CCCCC2)n(O)c(=O)c1,> 10 µM (inactive)
14,C[C@H]1O[C@@H](O[C@H]2[C@@H](O)C[C@H](O[C@H]3[C@@H](O)C[C@H](O[C@H]4CC[C@@]5(C)[C@H](CC[C@@H]6[C@@H]5CC[C@]5(C)[C@@H](C7=CC(=O)OC7)CC[C@]65O)C4)O[C@@H]3C)O[C@@H]2C)C[C@H](O)[C@@H]1O,0.011 µM
15,CCCCCCCCCCCCCCCC[N+](C)(C)CC,1.14 µM
16,CC(C)OC(=O)OCOP(=O)(CO[C@H](C)Cn1cnc2c(N)ncnc21)OCOC(=O)OC(C)C,3.84 µM
17,CC1(C)[C@H](C=C(Cl)Cl)[C@@H]1C(=O)OCc1c(F)c(F)cc(F)c1F,> 10 µM (inactive)
18,CC(C)C[C@H](NC(=O)[C@H](CCc1ccccc1)NC(=O)CN1CCOCC1)C(=O)N[C@@H](Cc1ccccc1)C(=O)N[C@@H](CC(C)C)C(=O)[C@@]1(C)CO1,0.0204 µM
19,O=C1OC(OC(=O)c2cccnc2Nc2cccc(C(F)(F)F)c2)c2ccccc21 (stereo not given),> 10 µM (inactive)
20,CC(C)(C)C(=O)OCOP(=O)(COCCn1cnc2c(N)ncnc21)OCOC(=O)C(C)(C)C,0.391 µM
21,C#C[C@]1(OC(C)=O)CC[C@H]2[C@@H]3CCC4=C/C(=N/O)CC[C@@H]4[C@H]3CC[C@@]21CC,> 10 µM (inactive)
22,CC[C@]12CCCN3CCc4c(n(c5ccccc45)C(=O)C1)[C@@H]32,> 10 µM (inactive)

row,SMILES,IC50
1,CC(C)=CCCC(C)=CCCC(C)=CCCC=C(C)CCC=C(C)CCC=C(C)C,> 10 µM (inactive)
2,O=NN(CCCl)C(=O)NC1CCCCC1,> 10 µM (inactive)
3,Cc1ccccc1C(=O)Nc1ccc(C(=O)N2CCCC(N(C)C)c3ccccc32)cc1 (stereo not given),> 10 µM (inactive)
4,O=C(Nc1ccc([N+](=O)[O-])cc1)Nc1ccc([N+](=O)[O-])cc1,> 10 µM (inactive)
5,O=C1NCCN1CCN1CCC(c2cn(-c3ccc(F)cc3)c3ccc(Cl)cc23)CC1,> 10 µM (inactive)
6,CC(C)c1c(C(=O)Nc2ccccc2)c(-c2ccccc2)c(-c2ccc(F)cc2)n1CC[C@@H](O)C[C@@H](O)CC(=O)O,> 10 µM (inactive)
7,CO[C@@]12[C@H](COC(N)=O)C3=C(C(=O)C(C)=C(N)C3=O)N1C[C@@H]1N[C@@H]12,0.102 µM
8,Cn1cc(S(C)=O)c(=O)c2ccc(F)cc21 (stereo not given),> 10 µM (inactive)
9,CCCCCCCCOC(=O)c1ccccc1C(=O)OCCCCCCCC,> 10 µM (inactive)
10,CCCn1cnc2c1c(=O)n(CCCCC(C)=O)c(=O)n2C,> 10 µM (inactive)
11,O=C(N/N=C/c1ccccc1O)c1ccncc1,> 10 µM (inactive)
12,OCCN1CCN(CCCN2c3ccccc3Sc3ccc(Cl)cc32)CC1,> 10 µM (inactive)
13,Nc1c2ccccc2nc2ccccc12,> 10 µM (inactive)
14,O=C(OCc1ccccc1)c1cccnc1,> 10 µM (inactive)
15,O=C(Nc1ccc(Br)cc1)c1cc(Br)c(Br)s1,> 10 µM (inactive)
16,Oc1c(Cl)cc(Cl)cc1Sc1cc(Cl)cc(Cl)c1O,1.79 µM
17,CCCCCCCCCCCCCC[N+](C)(C)C,1.9 µM
18,CC(C(O)c1ccccc1)N(C)C/C=C/c1ccccc1 (stereo not given),> 10 µM (inactive)
19,COc1cccc2c1C(=O)c1c(O)c3c(c(O)c1C2=O)C[C@@](O)(C(=O)CO)CC3OC1CC(N2CCOC(OC)C2)C(O)C(C)O1 (stereo not given in full),0.003 µM
20,CCOP(=S)(OCC)SCSc1ccc(Cl)cc1,> 10 µM (inactive)
21,C[C@H](O)CN(C)C,> 10 µM (inactive)
22,O=C(c1ccc(F)cc1)C1CCN(CCn2c(=O)[nH]c3ccccc3c2=O)CC1,> 10 µM (inactive)

row,SMILES,IC50
1,Oc1c(Cl)cc(Cl)c2cccnc12,2 µM
2,O=C(O)C1CCC1,> 10 µM (inactive)
3,COc1cc(C=C2CCC/C(=C\c3ccc(O)c(OC)c3)C2=O)ccc1O,> 10 µM (inactive)
4,S=c1nc[nH]c2nc[nH]c12,0.915 µM
5,COC(=O)Nc1nc2ccc(Sc3ccccc3)cc2[nH]1,0.207 µM
6,COP(=S)(OC)Oc1ccc(Sc2ccc(OP(=S)(OC)OC)cc2)cc1,> 10 µM (inactive)
7,CCCCCCCCCCCCCCCC[N+](C)(C)Cc1ccccc1,2.53 µM
8,COc1cc(S(N)(=O)=O)cc(C(=O)O)c1OC,> 10 µM (inactive)
9,C=CCCCCCCCCC(=O)OC,> 10 µM (inactive)
10,COC(=O)C1=C(C)NC(C)=C(C(=O)OCCN2CCN(C(c3ccccc3)c3ccccc3)CC2)C1c1cccc([N+](=O)[O-])c1 (stereo not given),> 10 µM (inactive)
11,CCN(CC)C(=O)c1cccnc1,> 10 µM (inactive)
12,CC(=O)O[C@@]12CO[C@@H]1C[C@H](O)[C@@]1(C)C(=O)[C@H](O)C3=C(C)[C@@H](OC(=O)[C@H](O)[C@@H](NC(=O)OC(C)(C)C)c4ccccc4)C[C@@](O)([C@@H](OC(=O)c4ccccc4)[C@H]21)C3(C)C,0.001 µM
13,Cc1ccc2c(Br)cc(Br)c(O)c2n1,> 10 µM (inactive)
14,CCc1oc2ccccc2c1C(=O)c1cc(Br)c(O)c(Br)c1,> 10 µM (inactive)
15,COc1ccc2cc3[n+](cc2c1OC)CCc1cc2c(cc1-3)OCO2,2.68 µM
16,CCCCCCCCOc1ccccc1C(=O)Nc1ccc(C(=O)OCC[N+](C)(CC)CC)cc1,> 10 µM (inactive)
17,COCC(=O)O[C@]1(CCN(C)CCCc2nc3ccccc3[nH]2)CCc2cc(F)ccc2[C@@H]1C(C)C,> 10 µM (inactive)
18,C/C(=C(/OCCOc1ccc(Cl)cc1)c1ccc(Cl)cc1Cl)n1ccnc1,5.84 µM (inactive)
19,Cc1ccc(C(=O)Oc2ccc(C(O)CNC(C)(C)C)cc2OC(=O)c2ccc(C)cc2)cc1 (stereo not given),> 10 µM (inactive)
20,O=[N+]([O-])c1cccc(S(=O)(=O)NCCNS(=O)(=O)c2cccc([N+](=O)[O-])c2)c1,> 10 µM (inactive)
21,O=C(Nc1ccc(Br)cc1)c1cc(Br)cc(Br)c1O,1.81 µM

# — PubChem BioAssay AID1117337 (Cheminformatics & Chemogenomics Research Group (CCRG), …, 2015)
